Some test systems named below: SF-295 CNS; SW-620 colon; HL-60(TB) leukemia; MOLT-4 leukemia; SN12C renal; UO-31 renal; MDA-MB-231 breast; MCF7 breast; NCI/ADR-RES ovarian; DU-145 prostate; HT29 colon.
What all share (assay): NCI anticancer screen, dose series, 48 h

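Five compound concentrations were applied to cells in 96-well plates for 48 hours; endpoints were derived by simple linear interpolation of the resulting dose-response curve. Definition used: TGI = concentration required for complete inhibition of growth.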

In the case of `CC(=O)Nc1ccc(-c2nc3cc(Cl)ccc3o2)cc1`, the TGI with SF-295 CNS, in the experiment on SW-620 colon, with HL-60(TB) leukemia, with MOLT-4 leukemia, in the experiment with SN12C renal and in the experiment with UO-31 renal was over 50 µM each time. The TGI with MDA-MB-231 breast, in the experiment on MCF7 breast, in the experiment on NCI/ADR-RES ovarian, with DU-145 prostate and with HT29 colon was over 50 µM in each case.
As to `COc1ccc(CN(Cc2ccc(OC)cc2)C(=O)CC2(O)C=CCC2)cc1` (centres undefined), the TGI in the experiment with SF-295 CNS, in the experiment with SW-620 colon, in the experiment with HL-60(TB) leukemia, in the experiment with MOLT-4 leukemia, in the experiment with SN12C renal and with UO-31 renal was over 100 µM in each case. Besides, the TGI with MDA-MB-231 breast, in the experiment on MCF7 breast, in the experiment with NCI/ADR-RES ovarian, in the experiment with DU-145 prostate and in the experiment on HT29 colon was over 100 µM each time.
Turning to `COc1ccc(C(=O)/C=C/c2ccncc2)cc1OC`, the TGI in the experiment with SF-295 CNS stood at 29.9 µM; in the experiment on HL-60(TB) leukemia, 5.02 µM; with MOLT-4 leukemia it was 86.7 µM; in the experiment with SN12C renal it was 29.2 µM; in the experiment on UO-31 renal, 28.1 µM; with MDA-MB-231 breast, 24.3 µM. Moreover, the TGI in the experiment with MCF7 breast was 13.4 µM; in the experiment on NCI/ADR-RES ovarian, 42.7 µM; with DU-145 prostate it was 31.6 µM; with HT29 colon it was 21.7 µM.
As to `O=C(CCc1cc(O)cc(O)c1)NCCc1cc(O)cc(O)c1`, the TGI in the experiment with SF-295 CNS, in the experiment on SW-620 colon, in the experiment on MOLT-4 leukemia, in the experiment with SN12C renal, with UO-31 renal and in the experiment on MDA-MB-231 breast was over 100 µM each time. Moreover, the TGI in the experiment with MCF7 breast, in the experiment on NCI/ADR-RES ovarian, with DU-145 prostate and in the experiment with HT29 colon was over 100 µM throughout.
`N#CC1(C#N)C2CCCCC23OC(=N)C1(C#N)C(c1ccccc1)O3` (centres undefined): the TGI in the experiment on SF-295 CNS was over 100 µM; in the experiment with SW-620 colon it was over 100 µM; with MOLT-4 leukemia, over 100 µM; in the experiment on SN12C renal, 26.7 µM; in the experiment with UO-31 renal it was over 100 µM; in the experiment on MDA-MB-231 breast it was 33.8 µM. Besides, the TGI in the experiment with MCF7 breast was 49.9 µM; in the experiment on NCI/ADR-RES ovarian, over 100 µM; in the experiment with DU-145 prostate, 64.3 µM; in the experiment on HT29 colon, 60.2 µM.
`O=C(/C=C/C=C/c1ccccc1)c1ccc2c(c1)CCCC2`: the TGI was over 100 µM with SF-295 CNS; over 100 µM in the experiment on SW-620 colon; 87.6 µM in the experiment with MOLT-4 leukemia; over 100 µM with SN12C renal; over 100 µM in the experiment on UO-31 renal; over 100 µM in the experiment with MDA-MB-231 breast. Besides, the TGI in the experiment on MCF7 breast is over 100 µM; in the experiment with NCI/ADR-RES ovarian, 65.8 µM; in the experiment with DU-145 prostate, 92.3 µM; in the experiment on HT29 colon, over 100 µM.
As to `C#CCN(CC#C)C(=O)C(=O)c1c[nH]c2ccc(OC)cc12`, the TGI with SF-295 CNS is 32.5 µM; with SW-620 colon, 41.2 µM; with HL-60(TB) leukemia it was 20.5 µM; in the experiment with SN12C renal, 30 µM; in the experiment with UO-31 renal it was 21.1 µM; with MDA-MB-231 breast, 31 µM. For the same compound, the TGI with MCF7 breast was 34.7 µM; in the experiment on NCI/ADR-RES ovarian it was 57.7 µM; in the experiment with DU-145 prostate it was over 100 µM; in the experiment on HT29 colon, 25.3 µM.
On to `COc1ccc(/C=N/n2c(-c3ccccc3)n[nH]c2=O)cc1`, for which the TGI in the experiment on SF-295 CNS, in the experiment with SW-620 colon, in the experiment with MOLT-4 leukemia, in the experiment on SN12C renal, in the experiment on UO-31 renal and with MDA-MB-231 breast was over 100 µM throughout. For the same compound, the TGI in the experiment with MCF7 breast, in the experiment with NCI/ADR-RES ovarian, in the experiment on DU-145 prostate and in the experiment on HT29 colon was over 100 µM throughout.
As to `COC(=O)C1C=CN(N(C)C)C2=C1C(=O)c1c(O)cccc1C2=O` (centres undefined), the TGI in the experiment with SF-295 CNS came out at 3.31 µM; in the experiment with SW-620 colon, 5.14 µM; in the experiment on SN12C renal, 3.95 µM; in the experiment with UO-31 renal, 15.8 µM; with MDA-MB-231 breast, 5.79 µM; in the experiment on MCF7 breast it was 6.38 µM. Besides, the TGI in the experiment on NCI/ADR-RES ovarian is 6.47 µM; in the experiment on DU-145 prostate, 2.96 µM; in the experiment with HT29 colon, 3.61 µM.
With `CC(C)(C)c1cc(C(CO)OCCOCCO)cc(C(C)(C)C)c1O` (centres undefined), the TGI with SF-295 CNS, in the experiment on SW-620 colon, with SN12C renal, in the experiment on UO-31 renal, in the experiment with MDA-MB-231 breast and with MCF7 breast was over 100 µM each time. For the same compound, the TGI in the experiment with NCI/ADR-RES ovarian, with DU-145 prostate and in the experiment on HT29 colon was over 100 µM in each case.
Turning to `COc1ccc(-c2nc(SCC(=O)N/N=C/c3ccc(O)c(OC)c3)[nH]c2-c2ccc(OC)cc2)cc1`, the TGI with SF-295 CNS was 46.5 µM; in the experiment on SW-620 colon, over 100 µM; in the experiment on HL-60(TB) leukemia, 32.4 µM; with SN12C renal it was 41.1 µM; in the experiment with UO-31 renal, over 100 µM; with MDA-MB-231 breast, 84.5 µM. For the same compound, the TGI in the experiment with MCF7 breast is 33.6 µM; with NCI/ADR-RES ovarian, over 100 µM; in the experiment on DU-145 prostate, over 100 µM; with HT29 colon it was 46.1 µM.
`Cc1cc(OCc2nnc3n2N=C(c2cc(F)c(Cl)cc2Cl)/C(=C/c2ccc(Cl)cc2)S3)ccc1Cl`: the TGI in the experiment on SF-295 CNS is over 100 µM; with SW-620 colon, 38.5 µM; in the experiment with HL-60(TB) leukemia, 21.3 µM; in the experiment with MOLT-4 leukemia it was 19.8 µM; in the experiment with UO-31 renal, over 100 µM; in the experiment with MDA-MB-231 breast, over 100 µM. Also, the TGI in the experiment on MCF7 breast was 87.9 µM; in the experiment with NCI/ADR-RES ovarian it was over 100 µM; in the experiment on DU-145 prostate, 36.6 µM; with HT29 colon, 52.5 µM.
In the case of `Cc1ccc(NC(=S)NNC(=O)c2cc(-c3ccccc3)nc3ccccc23)cc1`, the TGI with SF-295 CNS came out at 17.4 µM; in the experiment on SW-620 colon it was 25.9 µM; in the experiment with MOLT-4 leukemia, 44.3 µM; with SN12C renal it was 31.8 µM; in the experiment with UO-31 renal, 25.5 µM; in the experiment with MDA-MB-231 breast it was 36.3 µM. The TGI with MCF7 breast stood at 31.5 µM; with NCI/ADR-RES ovarian, 48 µM; in the experiment with DU-145 prostate, 26.1 µM; in the experiment on HT29 colon it was 55 µM.
For `CC(=O)Nc1ccc(-c2nc3ccccc3s2)cc1`, the TGI in the experiment with SF-295 CNS was over 100 µM; in the experiment with SW-620 colon it was over 100 µM; in the experiment with HL-60(TB) leukemia, over 100 µM; in the experiment on MOLT-4 leukemia, over 100 µM; in the experiment on UO-31 renal it was over 100 µM; in the experiment on MDA-MB-231 breast, 96.1 µM. In addition, the TGI is over 100 µM in the experiment on MCF7 breast, over 100 µM in the experiment on NCI/ADR-RES ovarian, 40.1 µM in the experiment on DU-145 prostate and over 100 µM in the experiment with HT29 colon.
As to `CC1(C)OC(=C(C#N)C#N)C(C#N)=C1/C=C/c1ccncc1`, the TGI is 5.28 µM with SF-295 CNS; 4.41 µM in the experiment on SW-620 colon; 4.42 µM with MOLT-4 leukemia; 5.75 µM with SN12C renal; 8.34 µM in the experiment with UO-31 renal; 4.36 µM in the experiment with MDA-MB-231 breast. For the same compound, the TGI was 4.28 µM in the experiment on MCF7 breast, 4.13 µM in the experiment with NCI/ADR-RES ovarian, 6.21 µM in the experiment with DU-145 prostate and 4.07 µM in the experiment with HT29 colon.
Turning to `CC(/C=N\NC(=S)N1CCCCC1)=N/NC(=S)N1CCCCC1`, the TGI in the experiment on SF-295 CNS was 14.4 µM; in the experiment with SW-620 colon it was 14.7 µM; with MOLT-4 leukemia it was over 100 µM; in the experiment on SN12C renal, 10.8 µM; with UO-31 renal, 7.19 µM; with MDA-MB-231 breast it was 11.1 µM. Also, the TGI is over 45.8 µM in the experiment on MCF7 breast, 6.9 µM in the experiment with NCI/ADR-RES ovarian, 4.58 µM in the experiment with DU-145 prostate and 62.4 µM with HT29 colon.
Consider `CN1C(=O)C(CC=O)(C(C)(C)C)c2ccccc21` (centres undefined), for which the TGI with SF-295 CNS, in the experiment with SW-620 colon, in the experiment with HL-60(TB) leukemia, in the experiment with MOLT-4 leukemia, in the experiment with SN12C renal and in the experiment with UO-31 renal was over 100 µM throughout. Also, the TGI with MDA-MB-231 breast, in the experiment with MCF7 breast, in the experiment with NCI/ADR-RES ovarian and with DU-145 prostate was over 100 µM throughout.
On to `O=C1C[C@H]2[C@@H](O1)[C@@H](O)CN1C(=O)c3ccccc3[C@H]21`, for which the TGI in the experiment on SF-295 CNS, in the experiment on SW-620 colon, in the experiment on MOLT-4 leukemia, with SN12C renal, with UO-31 renal and in the experiment with MDA-MB-231 breast was over 100 µM throughout. Besides, the TGI with MCF7 breast, in the experiment with NCI/ADR-RES ovarian, in the experiment with DU-145 prostate and with HT29 colon was over 100 µM throughout.
Turning to `C[C@@H]1C[C@](O)([C@@H](C)Cl)C(=O)O[C@@H]2CCN3CC=C(COC(=O)[C@]1(C)O)[C@H]23`, the TGI in the experiment with SF-295 CNS is over 100 µM; with SW-620 colon, over 100 µM; in the experiment with HL-60(TB) leukemia it was over 100 µM; in the experiment on UO-31 renal it was over 10 µM; in the experiment on MDA-MB-231 breast, over 100 µM; in the experiment with MCF7 breast, over 100 µM. For the same compound, the TGI in the experiment on NCI/ADR-RES ovarian, with DU-145 prostate and in the experiment with HT29 colon was over 100 µM throughout.
Consider `CC[C@]1(Cc2ccc(OC)c(OC)c2)[C@@H]2C[C@@H](C3OCCO3)ON2O[C@H](OC2CCCC2(c2ccccc2)c2ccccc2)[C@@H]1OC(C)=O` (some centres undefined), for which the TGI was 39.1 µM with SF-295 CNS; over 100 µM in the experiment on SW-620 colon; 29 µM with MOLT-4 leukemia; over 100 µM in the experiment on SN12C renal; 37.7 µM in the experiment with UO-31 renal; over 100 µM in the experiment with MDA-MB-231 breast. In addition, the TGI with MCF7 breast was found to be 41.1 µM; in the experiment on NCI/ADR-RES ovarian, 53.9 µM; in the experiment on DU-145 prostate it was 83.9 µM; in the experiment with HT29 colon it was 42.4 µM.

These data come from PubChem BioAssay (NCI).
